Legend:
Type in all cases: cell-based
[1] = system: promastigote forms of L. major; assay: Leishmania major promastigote growth inhibition assay (Alamar Blue); conditions: promastigotes, 44 hours + 4 hours Alamar Blue, read-out: IC50: I Org. promastigote Growth L. major, 2 d
Source text: Example 108. Leishmania major Promastigote Growth Inhibition Assay
The promastigote assay is a microtiter plate drug sensitivity prescreen assay used to determine antileishmanial activity of candidate drugs against promastigote forms of L. major. (Shadow et al., PLOS Neglected Tropical Diseases, 2009, e311.) Alamar Blue, or resazurin, is a non-fluorescent indicator dye that is converted to bright red-fluorescent resorufin via the activity of mitochondrial reductases. As the activity of mitochondrial reductases is reduced in cells that are dead or dying, and the intensity of the fluorescence is relative to cell number, a test compound that kills or inhibits growth of a particular target cell, such as L. major, will result in a lower production of fluorescent signal. Pre-dosed microtiter drug plates for use in the promastigote drug prescreen assay were produced using sterile 384-well black optical bottom tissue culture plates (Nunc Cat #12-565-344). Candidate drugs were diluted in dimethyl sulfoxide in four 96-well plates to either 10,000 ng/ml or 1,000 ng/ml, and 4.25 μL of diluted drug was subsequently dispensed into each well of a 384-well plate. Duplicate 384 well plates were made at each test concentration (10,000 ng/mL and 1,000 ng/mL) and amphotericin B was used as a batch control. The Tecan EVO Freedom liquid handling system (Tecan US, Inc., Durham, N.C.) was used to produce all drug assay plates and conduct all pipetting operations for this assay. L. major parasites were cultured in Schneider's medium (Lonza Cat #04-351Q) supplemented with 20% heat inactivated FBS (Invitrogen Cat #16140-089). Promastigotes in early log growth phase were harvested from culture, counted, suspended at 1.32×10^5 cells/mF and 5,000 promastigotes were dispensed into each well of the 384 well plate in a volume of 38.8 μL. The 384 well plates were subsequently incubated at 28° C. for 44 hours. 8.4 μF of Alamar Blue (Promega, Cat #G8081) was added to each well, the plates were subsequently incubated at 28° C. and 5% CO2 for 4 hours and then examined for the relative fluorescence units (RFU) per well using the Tecan Genios Plus (Tecan US, Inc., Durham, N.C.) with excitation set at 560 nm and emission set at 590 nm. The relative fluorescence from each well was used to determine the percent growth inhibition of each candidate compound tested. Compounds with 50% or greater inhibition of growth were selected for further analysis to determine IC50 values.

[2] = system: TdTomato-modified T. cruzi (CL strain) in Vero cells; assay: In vitro IC50 measurement of T. cruzi amastigote killing using TdTomato-modified T. cruzi (CL strain); conditions: Trypanosoma cruzi, 72 h, fluorescence, read-out: IC50: I Org. amastigote Growth T. cruzi CL TdTomato, 3 d
Protocol: Example 112. In Vitro IC50 Measurement of T. cruzi Amastigote Killing Using TdTomato-Modified T. cruzi (CL Strain)
The T. cruzi parasites used in this assay were genetically modified to express Td Tomato fluorescent protein. Vero cells (African green monkey kidney epithelial cells) were harvested from continuous cultures using trypsin and added to the inner 60 wells of 96-well Greiner Bio One plates (plate catalog #655090) at 200 ul/well of […]. Cells were allowed to adhere for 1 h before infection with T. cruzi. T. cruzi for infection were harvested from previously-infected Vero cells, washed, pelleted and resuspended at 5×10^6/mL. 50 uL of parasites were added to each well containing Vero cells. Compounds were prepared from 5 mM stock concentrations in DMSO to final concentrations in wells ranging from 5 uM to 5 nM. Wells were provided for negative controls, lacking compounds. Plates were placed into a 37° C. incubator for 20 min, then a “Day 0” reading was taken on a Synergy H4 plate reader to record initial fluorescence levels, at 544 (excitation) and 612 nm (emission). 96-well plates were placed in Tupperware containers with wet paper towels and incubated at 37° C. incubator for 72 h. After 72 h plates were reread (Day 3 reading) and data analyzed using Excel and/or Graphpad software. Day 0 fluorescence was subtracted from Day 3 to remove input parasite fluorescence. Growth curves are generated and 50% and 90% inhibitory concentrations are determined by nonlinear regression analysis.

[3] = system: luciferase-expressing L. major parasites developing intracellularly inside RAW 264.7 macrophages; assay: Leishmania major intracellular amastigote assay in RAW 264.7 macrophages (luciferase); conditions: RAW264.7, 96 hours, read-out: IC50: I Org. intracellular amastigote Growth L. major, 4 d
Source text: Example 107. Assay for Leishmania major Intracellular Amastigote Assay in RAW 264.7 Macrophages
The intracellular amastigote assay is a microtiter plate drug sensitivity assay that uses the activity of luciferase as a measure of proliferation of luciferase-expressing L. major parasites developing intracellularly inside RAW 264.7 macrophages in the presence of antileishmanial drugs or experimental compounds. (Buckner, F. S., and A. J. Wilson. Am J Prop Med Hyg, 2005, 72(5): 600-605.) As the activity of luciferase and its associated luminescence after addition of the substrate, luciferin, is relative to parasite growth, a test compound that inhibits the growth of the parasite will result in a lower luminescence. The luciferase-expressing L. major parasite used in this assay is genetically modified by adding the luciferase coding region to the pLEXSY-hyg2 vector (Jena Biosciences). The luciferase expression construct was created by digesting the luciferase coding region (1.66 kbp) of pGL3-Basic (Promega) by using two restriction enzymes, NcoI/EagI, followed by electrophoretic separation of the luciferase coding region on a 1% agarose gel. The luciferase coding region was then ligated into pLEXSY-hyg2 vector (Jena Biosciences) which had previously been digested with NcoI/NotI. The vector was linearized with SwaI and subsequently gel purified prior to transfection into L. major parasites. Transfections were carried out by electroporation at 480V, 13Ω, and 500 μF (0.4 mL of 1×10^8 parasites/mL, and 0.1 mL of 10 μg DNA). Selection for transfectants was then carried out using hygromycin B (100 μg/mL). RAW 264.7 macrophages were cultured in DMEM media (ATCC Cat #30-2002) supplemented with heat-inactivated 10% FBS (Invitrogen Cat #10438-034). To begin the assay, macrophages were harvested from culture by removing all spent media, adding in 10 mL fresh media, scraping cells, and counted using Trypan Blue. The cells were resuspended in DMEM/10% HIFBS media at 2.0×10^5 cells/mL, and then dispensed in a volume of 50 μL to yield a final concentration of 10,000 macrophages/well in 384 well tissue-culture treated sterile white plates (Nunc Cat #12-565-343) using a Tecan EVO Freedom robotics system. The plates were then incubated at 37° C. overnight in 5% CO2 atmosphere for 24 hours. After overnight incubation, the media was removed from each well using the Tecan EVO Freedom robot, and L. major promastigotes were added to each well and allowed to invade the RAW macrophages. Promastigotes were cultured in Schneider's medium (Invitrogen Cat #11720-067) supplemented with 20% heat inactivated FBS. Metacyclic stage promastigotes provide the best invasion for this assay, and cultures should be grown to increase the percentage of metacyclic promastigotes for best results. Promastigotes were harvested from culture, counted, suspended at 2×10^6 promastigotes/mL in DMEM/HIFBS media, and 100,000 promastigotes were dispensed per well in a volume of 50 μL. After overnight incubation, the media was removed from each well using the Tecan Freedom EVO robot, and each well was subsequently washed three times with 40 μF of fresh DMEM/HIFBS medium to remove all extracellular promastigotes. After the third wash, 69.2 μF of DMEM/HIFBS medium was added to each well using the Tecan EVO Freedom robot. Drug plates were prepared with the Tecan EVO Freedom using sterile 96 well plates containing twelve duplicate two-fold serial dilutions of each test compound suspended in DMSO. 7.8 μF of diluted test compound was added to the 69.2 μF of media present in each well providing a 10 fold final dilution of compound. The final concentration range tested was 0.5 to 10,000 ng/ml for all assays. The plates were next incubated at 37° C. and 5% CO2 for 96 hours. After 96 hours of incubation, 7.5 μF of a luciferin solution (Caliper Fife Science) diluted to 150 μg/mF was added to each well, and the plates were incubated for 30 minutes at 37° C., in the dark. […]

[4] = system: L. infantum MHOM/MA(BE)/67 amastigotes in primary peritoneal mouse macrophages; assay: Leishmania infantum intracellular amastigote assay in mouse macrophages; conditions: Macrophage, 120 h, amastigotes in primary peritoneal mouse macrophages, 5 d, Giemsa staining, read-out: Inhibition of Organism Growth in Leishmania infantum MHOM/MA/BE/67, 5 d
Protocol: Example 111. Leishmania infantum Intracellular Amastigote Assay in Mouse Macrophages
L. infantum MHOM/MA(BE)/67 amastigotes were collected from the spleen of an infected donor hamster and used to infect primary peritoneal mouse macrophages. (Kaiser, M., Maes, L., Tadoori, L. P., Spangenberg, T., Ioset, J.-R. J. Biomol. Screen. 2015 20(5), 634-35.) To determine in vitro antileishmanial activity, 3×10^4 macrophages were seeded in each well of a 96-well plate. Culture medium was RPMI-1640 supplemented with L-glutamine (20 mM), 16.5 mM sodium hydrogen carbonate, and 10% fetal calf serum (FCS). After 2 d of outgrowth, 5×10^5 amastigotes/well were added and incubated for 2 h at 37° C. Prediluted samples to be tested were subsequently added, and the plates were further incubated for 5 d at 37° C. and 5% CO2. Total parasite burdens in the well were microscopically assessed after Giemsa staining and expressed as a percentage of the total burden in the blank controls without compound. In treated wells with high amastigote burdens, an overall estimate of the total burden per well was made without discrimination between the number of infected macrophages and the number of amastigotes per infected cell. In treated wells with low burdens, exact counting was performed. The 50% inhibitory concentrations (IC50s) were then generated for each dose response test using GraphPad Prism (GraphPad Software Inc., San Diego, Calif.) using the nonlinear regression (sigmoidal dose-response/variable slope) equation.

[5] = system: bloodstream forms of T. b. rhodesiense STIB 900; assay: T. brucei rhodesiense STIB 900 growth inhibition assay; conditions: Trypanosoma brucei; bloodstream forms, 72 h, Alamar Blue; protocol of Example 110; read-out: IC50: I Org. Growth T. brucei rhodesiense STIB 900, 3 d
Source text: Example 110. T. brucei rhodesiense STIB 900 Growth Inhibition Assay
The parasite strain used in this assay was isolated in 1982 from a human patient in Tanzania and after several mouse passages cloned and adapted to axenic culture conditions, ((a) Baltz, T., D. Baltz, C. Giroud, and J. Crockett. EMBO Journal, 1985, 4:1273-1277. (b) Thuita, J. K., S. M. Karanja, T. Wenzler, R. E. Mdachi, J. M. Ngotho, J. M. Kagira, R. Tidwell, and R. Brun. Acta Tropica 2008, 108:6-10.) Minimum Essential Medium (50 μl) supplemented with 25 mM HEPES, 1 g/l additional glucose, 1% MEM non-essential amino acids (100×), 0.2 mM 2-mercaptoethanol, 1 mM Na-pyruvate and 15% heat inactivated horse serum was added to each well of a 96-well microtiter plate. Serial drug dilutions of seven 3-fold dilution steps covering a range from 90 to 0.123 μg/ml were prepared. Then 10^4 bloodstream forms of T. b. rhodesiense STIB 900 in 50 μl was added to each well and the plate incubated at 37° C. under a 5% CO2 atmosphere for 72 h. 10 μl Alamar Blue (resazurin, 12.5 mg in 100 ml double-distilled water) was then added to each well and incubation continued for a further 2-4 h, (Raz, B., M. Iten, Y. Grether-Buhler, R. Kaminsky, and R. Brun. Acta Trap 1997, 68:139-47.) Then the plates were read with a Spectramax Gemini XS microplate fluorometer (Molecular Devices Cooperation, Sunnyvale, Calif., USA) using an excitation wave length of 536 nm and an emission wave length of 588 nm. Data were analyzed using the microplate reader software Softmax Pro (Molecular Devices Cooperation, Sunnyvale, Calif., USA).

[6] = system: Trypanosoma brucei rhodesiense STIB 900 strain; assay: Trypanosoma brucei rhodesiense STIB 900 screening assay; conditions: STIB 900 bloodstream forms, 72 h, Alamar Blue, protocol of Example 114, read-out: Swiss TPH T b rhodesiense IC50
Protocol: Example 114. Trypanosoma brucei rhodesiense STIB 900 Screening Assay Procedure
The Trypanosoma brucei rhodesiense STIB 900 strain was isolated in 1982 from a human patient in Tanzania and after several mouse passages cloned and adapted to axenic culture conditions (Baltz, et al., EMBO Journal 4: 1273-1277 (1985); Thuita, et al., Acta Tropica 108: 6-10 (2008)). Minimum Essential Medium (50 μL) supplemented with 25 mM HEPES, 1 g/L additional glucose, 1% MEM non-essential amino acids (100×), 0.2 mM 2-mercaptoethanol, 1 mM Na-pyruvate and 15% heat inactivated horse serum was added to each well of a 96-well microtiter plate. Serial drug dilutions of seven 3-fold steps covering a range from 90 to 0.123 μg/mL were prepared. Then 10^4 bloodstream forms of T. b. rhodesiense STIB 900 in 50 μL was added to each well and the plate incubated at 37° C. under a 5% CO2 atmosphere for 72 h. 10 μL Alamar Blue (resazurin, 12.5 mg in 100 mL double-distilled water) was then added to each well and incubation continued for a further 2-4 h (Raz, et al., Acta Tropica 68: 139-47 (1997)). Then the plates were read with a Spectramax Gemini XS microplate fluorometer (Molecular Devices Corporation, Sunnyvale, Calif., USA) using an excitation wavelength of 536 nm and an emission wavelength of 588 nm. Data were transferred into the graphic program Softmax Pro (Molecular Devices), which calculated IC50 values.

IC50 [4] | IC50 [6] | SMILES | IC50 [1] | IC50 [2] | IC50 [3] | IC50 [5]
– | – | Cc1c(C(=O)Nc2ccc3c(c2)B(O)OC32CCC2)nnn1-c1ccccn1 [Example 27, N-(1-hydroxy-1H-spiro[benzo[c][1,2]oxaborole-3,1′-cyclobutan]-6-yl)-5-methyl-1-(pyridin-2-yl)-1H-1,2,3-triazole-4-carboxamide] | 600 to 2500 nM | < 600 nM | 1100 to 9900 nM | –
3000 to 19900 nM | < 100 nM | Cn1nc(C(=O)Nc2ccc3c(c2)B(O)OC3(C)C)nc1-c1ccccc1 [Example 103, N-(1-hydroxy-3,3-dimethyl-1,3-dihydrobenzo[c][1,2]oxaborol-6-yl)-1-methyl-5-phenyl-1H-1,2,4-triazole-3-carboxamide] | – | – | – | 310 to 10000 nM
